Results: publication PMC8121951, “Structure-based engineering of substrate specificity for pinoresinol-lariciresinol reductases” (Nature Communications, 2021)

How the values were obtained:
IiPLR1 = biological target: T1, IiPLR1 (Isatis tinctoria, UniProt I6LRS1); assay: X-ray crystal structure, co-crystal; type: binding; details: wild type
T1 construct: full-length, pET-duet-1, E. coli Rosetta (DE3), Ni-NTA and Superdex-200; homodimer
T1 sequence (I6LRS1 1-317): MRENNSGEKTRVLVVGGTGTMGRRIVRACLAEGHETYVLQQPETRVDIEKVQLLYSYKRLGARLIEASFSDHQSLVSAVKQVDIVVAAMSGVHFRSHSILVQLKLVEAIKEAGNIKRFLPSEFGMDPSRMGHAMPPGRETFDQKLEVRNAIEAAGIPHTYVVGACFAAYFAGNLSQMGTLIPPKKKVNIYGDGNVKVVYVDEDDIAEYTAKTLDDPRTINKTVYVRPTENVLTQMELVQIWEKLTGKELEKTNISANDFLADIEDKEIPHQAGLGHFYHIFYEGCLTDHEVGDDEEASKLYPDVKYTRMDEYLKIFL

AtPrR1 = biological target: T2, AtPrR1 (Arabidopsis thaliana, UniProt Q9FVQ6); assay: X-ray crystal structure, co-crystal; type: binding; details: wild type
T2 construct: gene PRR1; full-length, pET-duet-1, E. coli Rosetta (DE3), Ni-NTA and Superdex-200; homodimer
T2 sequence (Q9FVQ6 1-317): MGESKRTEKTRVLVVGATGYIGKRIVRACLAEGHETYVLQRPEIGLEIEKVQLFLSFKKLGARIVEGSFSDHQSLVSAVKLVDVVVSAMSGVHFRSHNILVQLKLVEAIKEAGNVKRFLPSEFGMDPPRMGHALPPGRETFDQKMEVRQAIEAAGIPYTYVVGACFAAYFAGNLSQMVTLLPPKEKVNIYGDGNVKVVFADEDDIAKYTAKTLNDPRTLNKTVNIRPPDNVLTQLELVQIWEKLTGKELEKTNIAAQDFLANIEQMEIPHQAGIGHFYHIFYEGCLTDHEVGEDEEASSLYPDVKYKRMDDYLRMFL

AtPrR2 [1] = biological target: T3, AtPrR2 (Arabidopsis thaliana, UniProt Q9SVP6); assay: X-ray crystal structure, co-crystal; type: binding; details: wild type, 1.6 Å
T3 construct: gene PRR2; full-length, pET-duet-1, E. coli Rosetta (DE3), Ni-NTA and Superdex-200; homodimer
T3 sequence (Q9SVP6 1-317): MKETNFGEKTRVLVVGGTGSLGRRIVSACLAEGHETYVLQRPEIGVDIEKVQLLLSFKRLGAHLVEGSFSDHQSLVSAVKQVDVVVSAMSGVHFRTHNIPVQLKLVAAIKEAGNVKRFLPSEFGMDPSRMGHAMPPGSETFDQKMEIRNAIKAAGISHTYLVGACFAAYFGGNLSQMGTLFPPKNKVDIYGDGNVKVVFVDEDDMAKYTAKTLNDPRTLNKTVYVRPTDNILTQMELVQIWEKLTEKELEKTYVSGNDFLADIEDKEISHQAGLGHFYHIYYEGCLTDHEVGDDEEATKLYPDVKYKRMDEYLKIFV

AtPrR2 [2] = biological target: T4, AtPrR2 (Arabidopsis thaliana, UniProt Q9SVP6, N98S); assay: LC-MS product conversion; type: biochemical; details: NADPH 150 μM, Tris-HCl pH 7.0, 30 °C, 30 min
T4 construct: gene PRR2; full-length, pET-duet-1, E. coli Rosetta (DE3), Ni-NTA and Superdex-200; homodimer
T4 sequence (Q9SVP6 1-317 N98S): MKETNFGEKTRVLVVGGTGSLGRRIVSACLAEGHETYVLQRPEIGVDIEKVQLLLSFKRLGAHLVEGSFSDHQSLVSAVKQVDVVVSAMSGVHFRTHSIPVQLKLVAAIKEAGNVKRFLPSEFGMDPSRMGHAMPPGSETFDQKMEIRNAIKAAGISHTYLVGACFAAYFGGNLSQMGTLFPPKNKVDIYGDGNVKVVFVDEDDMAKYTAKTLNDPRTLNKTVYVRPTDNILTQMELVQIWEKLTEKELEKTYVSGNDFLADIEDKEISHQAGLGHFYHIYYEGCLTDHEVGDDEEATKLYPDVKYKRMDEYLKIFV

[3] = biological target: Isatis indigotica pinoresinol-lariciresinol reductase 1 (Isatis indigotica); assay: crystal structure; sitting-drop vapour diffusion at 20 or 4 °C, protein 5-10 mg/mL; apo, with NADP+ (1:5) or with NADP+ and substrate/product (1:5:10); homodimer seen in the crystal
[4] = substrate: COc1cc(C2OCC3C(c4ccc(O)c(OC)c4)OCC23)ccc1O; assay: LC-MS substrate consumption, Lineweaver-Burk; type: biochemical, Isatis tinctoria; details: NADPH 150 μM, 50 mM Tris-HCl pH 7.0, 10% glycerol, 30 °C, racemic substrate
From the text: (§1) LC-MS substrate consumption, Lineweaver-Burk on IiPLR1

[5] = substrate: COc1cc(CC2COC(c3ccc(O)c(OC)c3)C2CO)ccc1O; assay: LC-MS substrate consumption, Lineweaver-Burk; type: biochemical, Isatis tinctoria; details: NADPH 150 μM, 50 mM Tris-HCl pH 7.0, 10% glycerol, 30 °C, racemic substrate
From the text: as §1

[6] = biological target: the molecule itself; assay: crystal structure; sitting-drop vapour diffusion at 20 or 4 °C, protein 5-10 mg/mL; apo, with NADP+ (1:5) or with NADP+ and substrate/product (1:5:10); homodimer seen in the crystal

How did the “X-ray crystal structure, co-crystal” value (IiPLR1; with NADP+, 2.3 Å) turn out when `COc1cc(C[C@H](CO)[C@@H](CO)Cc2ccc(O)c(OC)c2)ccc1O` [+SEC, (+)-secoisolariciresinol] was run?
Its value is 7CS7 (IiPLR1 with NADP^+ and (+)secoisolariciresinol).

For `NC(=O)c1ccc[n+]([C@@H]2O[C@H](COP(=O)(O)OP(=O)(O)OC[C@H]3O[C@@H](n4cnc5c(N)ncnc54)[C@H](OP(=O)(O)O)[C@@H]3O)[C@@H](O)[C@H]2O)c1` [NAP, NADP^+], which “X-ray crystal structure, co-crystal” value (AtPrR1; 2.0 Å) is on record?
The value was 7CSA (AtPrR1 with NADP^+).

And the “X-ray crystal structure, co-crystal” value (IiPLR1; 2.4 Å)?
Its value is 7CS3 (IiPLR1 with NADP^+).

And the “X-ray crystal structure, co-crystal” value (AtPrR2 [1]; with (+)-pinoresinol)?
The value was 7CSH (AtPrR2 with NADP^+ and (+)pinoresinol).

`COc1cc(C[C@@H]2CO[C@@H](c3ccc(O)c(OC)c3)[C@@H]2CO)ccc1O` [-LAR, (−)-lariciresinol] was tested. Which “X-ray crystal structure, co-crystal” value (AtPrR1; with NADP+, 2.5 Å) did it give?
Its value is 7CSE (AtPrR1 with NADP^+ and (−)lariciresinol).

And the “X-ray crystal structure, co-crystal” value (IiPLR1; with NADP+, 2.2 Å)?
Its value is 7CS6 (IiPLR1 with NADP^+ and (−)lariciresinol).

For `COc1cc(C[C@H]2CO[C@H](c3ccc(O)c(OC)c3)[C@H]2CO)ccc1O` [lariciresinol], which LC-MS product conversion (AtPrR2 [2]) is on record?
The LC-MS product conversion was “AtPrR2 mutant N98S could utilize lariciresinol to produce secoisolariciresinol”.

Which stoichiometry N [3] does the source give for “Isatis indigotica pinoresinol-lariciresinol reductase 1 (enzyme)” here?
The stoichiometry N was 2.

With `COc1cc(C[C@@H](CO)[C@H](CO)Cc2ccc(O)c(OC)c2)ccc1O` [-SEC, (−)-secoisolariciresinol] as the molecule, how does the “X-ray crystal structure, co-crystal” value (AtPrR1; with NADP+, 2.0 Å) read?
The value was 7CSF (AtPrR1 with NADP^+ and (−)secoisolariciresinol).

What about the “X-ray crystal structure, co-crystal” value (IiPLR1; with NADP+, 2.6 Å) of the same molecule?
Its value is 7CS8 (IiPLR1 with NADP^+ and (−)secoisolariciresinol).

What does the source list for `COc1cc([C@@H]2OC[C@@H]3[C@H]2CO[C@H]3c2ccc(O)c(OC)c2)ccc1O` [-PIN, (−)-pinoresinol]?
X-ray crystal structure, co-crystal (AtPrR1; with NADP+, 2.5 Å): 7CSC (AtPrR1 with NADP^+ and (−)pinoresinol); X-ray crystal structure, co-crystal (IiPLR1; with NADP+, 2.1 Å): 7CS5 (IiPLR1 with NADP^+ and (−)pinoresinol)

`COc1cc([C@H]2OC[C@H]3[C@@H]2CO[C@@H]3c2ccc(O)c(OC)c2)ccc1O` [+PIN, (+)-pinoresinol] was tested. Which “X-ray crystal structure, co-crystal” value (AtPrR1; with NADP+, 2.0 Å) did it give?
Its value is 7CSB (AtPrR1 with NADP^+ and (+)pinoresinol).

And the “X-ray crystal structure, co-crystal” value (IiPLR1; with NADP+, 2.3 Å)?
The value was 7CS4 (IiPLR1 with NADP^+ and (+)pinoresinol).

And the “X-ray crystal structure, co-crystal” value (AtPrR2 [1]; with NADP+)?
Its value is 7CSH (AtPrR2 with NADP^+ and (+)pinoresinol).

For `COc1cc(C[C@H]2CO[C@H](c3ccc(O)c(OC)c3)[C@H]2CO)ccc1O` [+LAR, (+)-lariciresinol], which “X-ray crystal structure, co-crystal” value (AtPrR1; with NADP+, 1.8 Å) is on record?
The value was 7CSD (AtPrR1 with NADP^+ and (+)lariciresinol).

B1: IiPLR1 (Isatis tinctoria; V46A) (protein)
chain: MRENNSGEKTRVLVVGGTGTMGRRIVRACLAEGHETYVLQQPETRADIEKVQLLYSYKRLGARLIEASFSDHQSLVSAVKQVDIVVAAMSGVHFRSHSILVQLKLVEAIKEAGNIKRFLPSEFGMDPSRMGHAMPPGRETFDQKLEVRNAIEAAGIPHTYVVGACFAAYFAGNLSQMGTLIPPKKKVNIYGDGNVKVVYVDEDDIAEYTAKTLDDPRTINKTVYVRPTENVLTQMELVQIWEKLTGKELEKTNISANDFLADIEDKEIPHQAGLGHFYHIFYEGCLTDHEVGDDEEASKLYPDVKYTRMDEYLKIFL
notes: full-length, pET-duet-1, E. coli Rosetta (DE3), Ni-NTA and Superdex-200; homodimer
For B1, which Km [4] is on record?
The Km was 29.4 ± 1.62 µM.

What about the Vmax [4] of the same molecule?
Its Vmax is 3.22 µM/min.

What about the kcat [4] of the same molecule?
The kcat was 1.91 ± 0.402 s⁻¹.

What about the kcat/Km [4] of the same molecule?
Its kcat/Km is 64700 ± 10800 M⁻¹ s⁻¹.

And the Km [5]?
Its Km is 26.5 ± 0.60 µM.

What about the Vmax [5] of the same molecule?
The Vmax was 0.023 µM/min.

And the kcat [5]?
Its kcat is 0.0135 ± 0.00075 s⁻¹.

What about the kcat/Km [5] of the same molecule?
The kcat/Km was 517 ± 33.3 M⁻¹ s⁻¹.

B2: Arabidopsis thaliana pinoresinol reductase 1 (enzyme, UniProt Q9FVQ6 1-317, looked up)
chain: MGESKRTEKTRVLVVGATGYIGKRIVRACLAEGHETYVLQRPEIGLEIEKVQLFLSFKKLGARIVEGSFSDHQSLVSAVKLVDVVVSAMSGVHFRSHNILVQLKLVEAIKEAGNVKRFLPSEFGMDPPRMGHALPPGRETFDQKMEVRQAIEAAGIPYTYVVGACFAAYFAGNLSQMVTLLPPKEKVNIYGDGNVKVVFADEDDIAKYTAKTLNDPRTLNKTVNIRPPDNVLTQLELVQIWEKLTGKELEKTNIAAQDFLANIEQMEIPHQAGIGHFYHIFYEGCLTDHEVGEDEEASSLYPDVKYKRMDDYLRMFL
notes: Head-to-tail homodimer in all crystal forms; crystallised apo, with NADP+, or with NADP+ and substrate/product; also called AtPrR1; PrR; source: E. coli Rosetta (DE3), purified (Ni-NTA, Superdex-200); not shown: His tag (inferred from the Ni-NTA purification)
How did the “stoichiometry N” value [6] turn out when B2 was run?
Its value is 2.

B3: Arabidopsis thaliana pinoresinol reductase 2 (enzyme, UniProt Q9SVP6 1-317, looked up)
chain: MKETNFGEKTRVLVVGGTGSLGRRIVSACLAEGHETYVLQRPEIGVDIEKVQLLLSFKRLGAHLVEGSFSDHQSLVSAVKQVDVVVSAMSGVHFRTHNIPVQLKLVAAIKEAGNVKRFLPSEFGMDPSRMGHAMPPGSETFDQKMEIRNAIKAAGISHTYLVGACFAAYFGGNLSQMGTLFPPKNKVDIYGDGNVKVVFVDEDDMAKYTAKTLNDPRTLNKTVYVRPTDNILTQMELVQIWEKLTEKELEKTYVSGNDFLADIEDKEISHQAGLGHFYHIYYEGCLTDHEVGDDEEATKLYPDVKYKRMDEYLKIFV
notes: Head-to-tail homodimer in both crystal forms (apo); with NADP+ and (+)-pinoresinol); also called AtPrR2; PrR; source: E. coli Rosetta (DE3), purified (Ni-NTA, Superdex-200); not shown: His tag (inferred from the Ni-NTA purification)
B3 was tested. Which “stoichiometry N” value [6] did it give?
Its value is 2.
